Here are results for 27 compounds from patent US7846959B2, “Raf modulators and methods of use” (Exelixis, Inc., priority 2004, dated 2010).

The target in experiment [1] is B-Raf (Homo sapiens, UniProt P15056). Kind of experiment: Luciferase-coupled chemiluminescence kinase assay (ATP consumption), B-Raf. It counts as biochemical. The method in brief: (§1)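 Pre-incub. kinase […] + cpd, 30 min RT (20 mM Tris pH 7.5, 10 mM MgCl2, 0.03% TX-100, 1 mM DTT). Start w/ ATP, 3 h ambient. Luciferase-luciferin mix added and luminescence read. Total ATP use 25-60%. IC50 derived.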

In experiment [2] the target is c-Raf (Homo sapiens, UniProt P04049). Kind of experiment: Luciferase-coupled chemiluminescence kinase assay (ATP consumption), c-Raf. It is filed as biochemical. The method in brief:
as §1

Setting [3] is: read-out: bRaf (inhibition indicated as IC50).
[4] abbreviates: read-out: cRaf-1 (inhibition indicated as IC50).

Read-outs that look alike come from different tables or passages of the source. A value given as a limit tells only on which side of the number the result lay.

Chain of B-Raf (P15056 whole entry): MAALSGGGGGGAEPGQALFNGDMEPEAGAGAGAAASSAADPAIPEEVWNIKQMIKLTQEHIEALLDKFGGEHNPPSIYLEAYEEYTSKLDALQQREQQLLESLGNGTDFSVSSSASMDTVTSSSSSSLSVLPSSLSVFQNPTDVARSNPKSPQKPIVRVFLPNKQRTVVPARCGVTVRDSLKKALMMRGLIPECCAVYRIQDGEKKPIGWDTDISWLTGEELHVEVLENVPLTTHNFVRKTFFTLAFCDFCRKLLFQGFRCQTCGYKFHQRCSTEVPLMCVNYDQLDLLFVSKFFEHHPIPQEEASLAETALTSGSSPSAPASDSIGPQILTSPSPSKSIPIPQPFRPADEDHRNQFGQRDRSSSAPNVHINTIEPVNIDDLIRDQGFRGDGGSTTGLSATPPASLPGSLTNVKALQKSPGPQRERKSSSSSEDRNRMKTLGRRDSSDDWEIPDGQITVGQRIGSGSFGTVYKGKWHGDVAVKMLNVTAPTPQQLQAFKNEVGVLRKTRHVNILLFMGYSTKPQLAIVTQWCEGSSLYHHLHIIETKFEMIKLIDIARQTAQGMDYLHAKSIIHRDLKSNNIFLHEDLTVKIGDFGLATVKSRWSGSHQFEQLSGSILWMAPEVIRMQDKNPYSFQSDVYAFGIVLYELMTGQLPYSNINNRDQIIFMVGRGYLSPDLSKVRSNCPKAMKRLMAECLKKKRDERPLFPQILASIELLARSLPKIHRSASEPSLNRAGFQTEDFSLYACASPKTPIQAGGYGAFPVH
Chain of c-Raf (P04049 whole entry): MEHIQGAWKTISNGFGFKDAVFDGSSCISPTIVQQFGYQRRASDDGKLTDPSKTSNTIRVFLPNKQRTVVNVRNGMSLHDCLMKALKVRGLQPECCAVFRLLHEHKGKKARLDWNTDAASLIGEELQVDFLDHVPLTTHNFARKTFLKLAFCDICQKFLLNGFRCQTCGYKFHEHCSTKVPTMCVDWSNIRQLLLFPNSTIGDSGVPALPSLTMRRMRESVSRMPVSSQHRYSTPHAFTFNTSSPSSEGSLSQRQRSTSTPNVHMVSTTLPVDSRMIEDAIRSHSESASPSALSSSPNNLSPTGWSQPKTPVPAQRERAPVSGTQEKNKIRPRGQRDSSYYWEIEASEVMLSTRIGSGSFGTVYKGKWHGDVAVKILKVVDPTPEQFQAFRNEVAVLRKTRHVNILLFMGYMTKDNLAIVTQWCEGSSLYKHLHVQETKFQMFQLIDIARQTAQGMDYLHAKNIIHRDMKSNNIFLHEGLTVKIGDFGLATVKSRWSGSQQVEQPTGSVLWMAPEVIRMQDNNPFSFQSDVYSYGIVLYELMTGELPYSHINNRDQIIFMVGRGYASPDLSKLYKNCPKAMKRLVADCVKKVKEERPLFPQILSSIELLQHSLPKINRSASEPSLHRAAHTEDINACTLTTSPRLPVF

By IC50 is commonly meant the concentration needed to halve the response being measured. `O=C(Nc1nc2ccc(C3(O)c4ccccc4C(=O)N3c3cccc(Cl)c3F)cc2[nH]1)OCCN1CCOCC1` (stereo not drawn) [Entry 308, 2-morpholin-4-ylethyl {6-[2-(3-chloro-2-fluorophenyl)-1-hydroxy-3-oxo-2,3-dihydro-1H-isoindol-1-yl]-1H-benzimidazol-2-yl}carbamate]: the concentration for half-maximal inhibition (IC50) in experiment [1] (setting [3]) and in experiment [2] (setting [4]) was less than 100 nM in each case.

Consider `COC(=O)Nc1nc2ccc(C3(O)c4c(F)ccc(F)c4C(=O)N3c3cccc(Cl)c3F)cc2[nH]1` (stereo not drawn) [Entry 339, methyl {6-[2-(3-chloro-2-fluorophenyl)-4,7-difluoro-1-hydroxy-3-oxo-2,3-dihydro-1H-isoindol-1-yl]-1H-benzimidazol-2-yl}carbamate], for which the IC50 in experiment [1] (setting [3]) and in experiment [2] (setting [4]) was less than 100 nM each time.

As to `COC(=O)Nc1nc2cc(C3(O)c4ccccc4C(=O)N3C(C)c3cc(Cl)ccc3C)ccc2[nH]1` (stereo not drawn) [Entry 198, methyl (5-{2-[1-(5-chloro-2-methylphenyl)ethyl]-1-hydroxy-3-oxo-2,3-dihydro-1H-isoindol-1-yl}-1H-benzimidazol-2-yl)carbamate], the IC50 in experiment [1] (read-out: bRaf IC50) and in experiment [2] (read-out: cRaf-1 IC50) was 1000 to 10000 nM in each case.

In the case of `O=C1COc2ccc(C3(O)c4ccccc4C(=O)N3c3cccc(OCc4ccccc4)c3)cc2N1` (stereo not drawn) [Entry 80, 6-(1-hydroxy-3-oxo-2-{3-[(phenylmethyl)oxy]phenyl}-2,3-dihydro-1H-isoindol-1-yl)-2H-1,4-benzoxazin-3(4H)-one], the IC50 in experiment [1] (read-out: bRaf IC50) and in experiment [2] (read-out: cRaf-1 IC50) was not below 10000 nM throughout.

Consider `O=C1COc2ccc(C3(O)c4ccccc4C(=O)N3Cc3cccc(C(F)(F)F)c3)cc2N1` (stereo not drawn) [Entry 53, 6-(1-hydroxy-3-oxo-2-{[3-(trifluoromethyl)phenyl]methyl}-2,3-dihydro-1H-isoindol-1-yl)-2H-1,4-benzoxazin-3(4H)-one], for which the IC50 in experiment [1] (read-out: bRaf IC50) and in experiment [2] (read-out: cRaf-1 IC50) was not below 10000 nM throughout.

Take `COC(=O)Nc1nc2cc(C3(O)c4ccccc4C(=O)N3C(C)c3ccccc3F)ccc2[nH]1` (stereo not drawn) [Entry 172, methyl (5-{2-[1-(2-fluorophenyl)ethyl]-1-hydroxy-3-oxo-2,3-dihydro-1H-isoindol-1-yl}-1H-benzimidazol-2-yl)carbamate]: the 50% inhibitory concentration (IC50) in experiment [1] (read-out: bRaf IC50) and in experiment [2] (read-out: cRaf-1 IC50) was 1000 to 10000 nM in each case.

With `C#Cc1c(F)ccc(N2C(=O)c3ccccc3C2(O)c2ccc3[nH]c(NC(=O)OC)nc3c2)c1F` (stereo not drawn) [Entry 353, methyl {5-[2-(3-ethynyl-2,4-difluorophenyl)-1-hydroxy-3-oxo-2,3-dihydro-1H-isoindol-1-yl]-1H-benzimidazol-2-yl}carbamate], the concentration for half-maximal inhibition (IC50) in experiment [1] (setting [3]) and in experiment [2] (setting [4]) was less than 100 nM throughout.

Consider `CC#CCOC(=O)Nc1nc2cc(C3(O)c4ccccc4C(=O)N3[C@H](C)c3ccccc3)ccc2[nH]1` (stereo partly drawn) [Entry 148, but-2-yn-1-yl (5-{1-hydroxy-3-oxo-2-[(1R)-1-phenylethyl]-2,3-dihydro-1H-isoindol-1-yl}-1H-benzimidazol-2-yl)carbamate], for which the half-maximal inhibitory concentration (IC50) in experiment [1] (read-out: bRaf IC50) and in experiment [2] (read-out: cRaf-1 IC50) was less than 100 nM each time.

For `CCN(CC)CC#CCOC(=O)Nc1nc2ccc(C3(O)c4ccccc4C(=O)N3c3cccc(Cl)c3F)cc2[nH]1` (stereo not drawn) [Entry 321, 4-(diethylamino)but-2-yn-1-yl {6-[2-(3-chloro-2-fluorophenyl)-1-hydroxy-3-oxo-2,3-dihydro-1H-isoindol-1-yl]-1H-benzimidazol-2-yl}carbamate], the IC50 in experiment [1] (setting [3]) and in experiment [2] (setting [4]) was less than 100 nM in each case.

Regarding `COC(=O)Nc1nc2cc(C3(O)c4ccccc4C(=O)N3CC(C)C)ccc2[nH]1` (stereo not drawn) [Entry 162, methyl {5-[1-hydroxy-2-(2-methylpropyl)-3-oxo-2,3-dihydro-1H-isoindol-1-yl]-1H-benzimidazol-2-yl}carbamate], the 50% inhibitory concentration (IC50) in experiment [1] (read-out: bRaf IC50) and in experiment [2] (read-out: cRaf-1 IC50) was 100 to 1000 nM throughout.

In the case of `COC(=O)Nc1nc2cc(C3(O)c4ccccc4C(=O)N3c3cc(C)ccc3C)ccc2[nH]1` (stereo not drawn) [Entry 365, methyl {5-[2-(2,5-dimethylphenyl)-1-hydroxy-3-oxo-2,3-dihydro-1H-isoindol-1-yl]-1H-benzimidazol-2-yl}carbamate], the half-maximal inhibitory concentration (IC50) in experiment [1] (setting [3]) and in experiment [2] (setting [4]) was less than 100 nM throughout.

On to `COC(=O)Nc1nc2cc(C3(O)c4ccccc4C(=O)N3C(C)c3cc(Br)cs3)ccc2[nH]1` (stereo not drawn) [Entry 210, methyl (5-{2-[1-(4-bromo-2-thienyl)ethyl]-1-hydroxy-3-oxo-2,3-dihydro-1H-isoindol-1-yl}-1H-benzimidazol-2-yl)carbamate], for which the 50% inhibitory concentration (IC50) in experiment [1] (read-out: bRaf IC50) and in experiment [2] (read-out: cRaf-1 IC50) was less than 100 nM in each case.

In the case of `CN1CCCC(COC(=O)Nc2nc3ccc(C4(O)c5ccccc5C(=O)N4c4cccc(Cl)c4F)cc3[nH]2)C1` (stereo not drawn) [Entry 309, (1-methylpiperidin-3-yl)methyl {6-{2-(3-chloro-2-fluorophenyl)-1-hydroxy-3-oxo-2,3-dihydro-1H-isoindol-1-yl]-1H-benzimidazol-2-yl}carbamate], the 50% inhibitory concentration (IC50) in experiment [1] (setting [3]) and in experiment [2] (setting [4]) was less than 100 nM throughout.

With `COC(=O)Nc1nc2ccc(C3(O)c4ccccc4C(=O)N3c3cccc(C)c3F)cc2[nH]1` (stereo not drawn) [Entry 390, methyl {6-[2-(2-fluoro-3-methylphenyl)-1-hydroxy-3-oxo-2,3-dihydro-1H-isoindol-1-yl]-1H-benzimidazol-2-yl}carbamate], the IC50 in experiment [1] (setting [3]) and in experiment [2] (setting [4]) was less than 100 nM throughout.

Regarding `CCc1cccc(N2C(=O)c3ccccc3C2(O)c2ccc3[nH]c(NC(=O)OC)nc3c2)c1F` (stereo not drawn) [Entry 359, methyl {5-[2-(3-ethyl-2-fluorophenyl)-1-hydroxy-3-oxo-2,3-dihydro-1H-isoindol-1-yl]-1H-benzimidazol-2-yl}carbamate], the 50% inhibitory concentration (IC50) in experiment [1] (setting [3]) and in experiment [2] (setting [4]) was less than 100 nM in each case.

Turning to `COC(=O)Nc1nc2cc(C3(O)c4ccccc4C(=O)N3c3cccc(Br)c3)ccc2[nH]1` (stereo not drawn) [Entry 134, methyl {5-[2-(3-bromophenyl)-1-hydroxy-3-oxo-2,3-dihydro-1H-isoindol-1-yl]-1H-benzimidazol-2-yl}carbamate], the IC50 in experiment [1] (read-out: bRaf IC50) and in experiment [2] (read-out: cRaf-1 IC50) was less than 100 nM each time.

For `CC#Cc1cccc(N2C(=O)c3ccccc3C2(O)c2ccc3[nH]c(NC(=O)OC)nc3c2)c1F` (stereo not drawn) [Entry 370, methyl {5-[2-(2-fluoro-3-prop-1-yn-1-ylphenyl)-1-hydroxy-3-oxo-2,3-dihydro-1H-isoindol-1-yl]-1H-benzimidazol-2-yl}carbamate], the IC50 in experiment [1] (setting [3]) and in experiment [2] (setting [4]) was 100 to 1000 nM each time.

On to `CC#CCOC(=O)Nc1nc2cc(C3(O)c4ccccc4C(=O)N3Cc3ccccc3)ccc2[nH]1` (stereo not drawn) [Entry 109, but-2-yn-1-yl {5-[1-hydroxy-3-oxo-2-(phenylmethyl)-2,3-dihydro-1H-isoindol-1-yl]-1H-benzimidazol-2-yl}carbamate], for which the concentration for half-maximal inhibition (IC50) in experiment [1] (read-out: bRaf IC50) and in experiment [2] (read-out: cRaf-1 IC50) was less than 100 nM in each case.

With `Cc1ccc(Cl)cc1N1C(=O)c2ccccc2C1(O)c1ccc2c(c1)NC(=O)CO2` (stereo not drawn) [Entry 74, 6-[2-(5-chloro-2-methylphenyl)-1-hydroxy-3-oxo-2,3-dihydro-1H-isoindol-1-yl]-2H-1,4-benzoxazin-3(4H)-one], the IC50 in experiment [1] (read-out: bRaf IC50) and in experiment [2] (read-out: cRaf-1 IC50) was less than 100 nM throughout.

For the compound `COC(=O)Nc1nc2cc(C3(O)c4ccccc4C(=O)N3Cc3ccccc3Cl)ccc2[nH]1` (stereo not drawn) [Entry 129, methyl (5-{2-[(2-chlorophenyl)methyl]-1-hydroxy-3-oxo-2,3-dihydro-1H-isoindol-1-yl}-1H-benzimidazol-2-yl)carbamate], the concentration for half-maximal inhibition (IC50) in experiment [1] (read-out: bRaf IC50) is 100 to 1000 nM; in experiment [2] (read-out: cRaf-1 IC50), less than 100 nM.

For `CC(=O)N1CCC(C(=O)Nc2nc3cc(C4(O)c5ccccc5C(=O)N4c4cccc(Cl)c4F)ccc3[nH]2)CC1` (stereo not drawn) [Entry 326, 1-acetyl-N-{5-[2-(3-chloro-2-fluorophenyl)-1-hydroxy-3-oxo-2,3-dihydro-1H-isoindol-1-yl]-1H-benzimidazol-2-yl}piperidine-4-carboxamide], the concentration for half-maximal inhibition (IC50) in experiment [1] (setting [3]) and in experiment [2] (setting [4]) was less than 100 nM in each case.

In the case of `CCOC(=O)c1cccc(N2C(=O)c3ccccc3C2(O)c2ccc3c(c2)NC(=O)CO3)c1` (stereo not drawn) [Entry 70, ethyl 3-[1-hydroxy-3-oxo-1-(3-oxo-3,4-dihydro-2H-1,4-benzoxazin-6-yl)-1,3-dihydro-2H-isoindol-2-yl]benzoate], the half-inhibitory concentration (IC50) in experiment [1] (read-out: bRaf IC50) and in experiment [2] (read-out: cRaf-1 IC50) was not below 10000 nM in each case.

For `Cc1cccc(N2C(=O)c3ccccc3C2(O)c2ccc3c(c2)NC(=O)CO3)c1` (stereo not drawn) [Entry 44, 6-[1-hydroxy-2-(3-methylphenyl)-3-oxo-2,3-dihydro-1H-isoindol-1-yl]-2H-1,4-benzoxazin-3(4H)-one], the half-inhibitory concentration (IC50) in experiment [1] (read-out: bRaf IC50) and in experiment [2] (read-out: cRaf-1 IC50) was 100 to 1000 nM in each case.

`COC(=O)Nc1nc2ccc(C(=O)c3ccccc3C(=O)Nc3cc(C)ccc3F)cc2[nH]1` [Entry 419, methyl {6-[(2-{[(2-fluoro-5-methylphenyl)amino]carbonyl}phenyl)carbonyl]-1H-benzimidazol-2-yl}carbamate]: the concentration for half-maximal inhibition (IC50) in experiment [1] (setting [3]) and in experiment [2] (setting [4]) was less than 100 nM each time.

Consider `COCCOC(=O)Nc1nc2cc(C3(O)c4ccccc4C(=O)N3Cc3ccccc3)ccc2[nH]1` (stereo not drawn) [Entry 106, 2-(methyloxy)ethyl {5-[1-hydroxy-3-oxo-2-(phenylmethyl)-2,3-dihydro-1H-isoindol-1-yl]-1H-benzimidazol-2-yl}carbamate], for which the IC50 in experiment [1] (read-out: bRaf IC50) and in experiment [2] (read-out: cRaf-1 IC50) was less than 100 nM throughout.

For `COC(=O)Nc1nc2cc(C3(O)c4ccccc4C(=O)N3c3cc(Cl)c(F)cc3F)ccc2[nH]1` (stereo not drawn) [Entry 245, methyl {5-[2-(5-chloro-2,4-difluorophenyl)-1-hydroxy-3-oxo-2,3-dihydro-1H-isoindol-1-yl]-1H-benzimidazol-2-yl}carbamate], the IC50 in experiment [1] (read-out: bRaf IC50) and in experiment [2] (read-out: cRaf-1 IC50) was less than 100 nM in each case.

Consider `Cc1c(Cl)cccc1N1C(=O)c2ccccc2C1(O)c1ccc2c(c1)NC(=O)CO2` (stereo not drawn) [Entry 75, 6-[2-(3-chloro-2-methylphenyl)-1-hydroxy-3-oxo-2,3-dihydro-1H-isoindol-1-yl]-2H-1,4-benzoxazin-3(4H)-one], for which the IC50 in experiment [1] (read-out: bRaf IC50) and in experiment [2] (read-out: cRaf-1 IC50) was 100 to 1000 nM in each case.
